The results in this text go back to a melting point compilation (Tetko et al.; mined from patent text by program, amines drawn as free bases though some values may be those of a salt).

Molecules are shown by their SMILES. Residues, ends and D or L forms follow the SMILES beside them. *: point of attachment. Tos = Cc1ccc(S(=O)(=O)*)cc1 Some results are limits rather than exact numbers.

One may read the melting point as the temperature, or range, at which the solid turns liquid.

In turn, `CCc1cn(C2CC(O)C(CNCc3ccccc3)O2)c(=O)[nH]c1=O` (stereo unspecified) registered a melting point of 121 to 124 °C.

`COC(=O)CCCCC(C[N+](=O)[O-])SCC(=O)O` (stereo unspecified) showed a melting point of 85 to 91 °C.

In turn, `CCc1nccc(N(C(=O)Cc2ccc(Oc3ccc(C(F)(F)F)cn3)cc2)C(=O)OC)c1Cl` showed a melting point of 62 to 64 °C.

On to `COc1cc2c(Nc3cc(OC)c(OC)c(OC)c3)c(C#N)cnc2cc1F`, for which the melting point lay within 215 to 217 °C.

In turn, `Cn1cc2c(n1)-c1sccc1N(C(=O)c1ccc(NC(=O)c3ccc(Cl)cc3Cl)cc1)CC2` had a melting point of 265 to 267 °C.

The compound `COc1ccc(CNc2nc(-c3ccccc3)c(-c3ccc(=O)n(C)n3)nc2C#N)cc1` yielded a melting point of 166 to 168 °C.

`CC(CN1CCC(NC(=O)C2CC2)CC1)c1ccc(C(=O)c2ccccc2)cc1` (stereo unspecified) yielded a melting point of 159 to 160 °C.

`CCOC(=O)C(Cl)=Cc1cc(-n2ncc(C(F)(F)F)cc2=O)c(F)cc1Cl` showed a melting point of 139 to 140 °C.

`CCOC(=O)c1oc2ccc([N+](=O)[O-])cc2c1OC(C)C`: the melting point turned out to be 122 °C.

For `CCCc1ccnc(C(=O)c2[nH]c3ccc(Cl)cc3c2CC(=O)O)c1`, the melting point fell in the range of 208 to 209 °C.

The compound `CCCCCCCCCCc1ccc(NC(=O)c2cnc(C(=O)NCC(=O)OCC)c(OC)c2)cc1` showed a melting point of 155 to 157 °C.

In turn, `CC(CC(=O)O)c1ccc(-c2ccccc2F)cc1` (stereo unspecified) came in with a melting point of 87 to 88 °C.

In turn, `CCC(CC)c1[nH]c(C)c(C(C)=O)c1C` returned a melting point of 186 to 189 °C.

The compound `N#Cc1ccccc1Cn1cc(C(=O)C(=O)NC2=CC(=O)OC2)c2ccccc21` had a melting point of 229 to 231 °C.

Compound `CC(C)(C)OC(=O)NNC1C2CC3CC(C2)CC1C3` (stereo unspecified) had a melting point of 90 to 92 °C.

With `O=C(O)c1cn(C2CC2)c2c(F)c(N3CCC(n4cncn4)C3)c(F)cc2c1=O` (stereo unspecified), the melting point lay within 220 to 221 °C.

Compound `CCCCc1oc2ccc(C(=O)OC)cc2c1C(=O)c1ccc(O)cc1` yielded a melting point of 152 to 153 °C.

Consider `CN1C(=O)C(Cl)=C(C#N)C1=O`, for which the melting point fell in the range of 141 to 143 °C.

`CCOc1cc2c(cc1OC)C(c1ccc(C(=O)O)cc1)=N[C@@H]1CCOC[C@H]21` came in with a melting point of 203 to 205 °C.

The compound `O=Cc1c(Cl)nc2n(c1=O)CCS2` came in with a melting point of 152 to 154 °C.

`NC(=O)c1cnccc1-c1ccccc1C(=O)N1Cc2ccccc2Cc2ccccc21` yielded a melting point of 217 to 220 °C.

`O=C1C2Cc3cc4ccccc4n3CC2CN1Cc1ccccc1` (stereo unspecified) returned a melting point of 121 to 123 °C.

Take `CCN(C(=O)Cl)c1ccc2c(c1)OCO2`: the melting point fell in the range of 68 to 69 °C.

As to `O=C(Nc1ccc(-c2nnn[nH]2)cc1)C(=O)N1CCC(Cc2ccccc2)CC1`, the melting point lay in the range of 127 to 129 °C.

As to `Cc1ccc(S(=O)(=O)N[C@@H](CCC(=O)O)C(=O)N[C@@H](Cc2ccc(O)cc2)C(=O)O)cc1` (Tos-Glu-Tyr-OH), the melting point fell in the range of 173 to 175 °C.

`O=C(O)c1cc2ccc(OCc3ccccc3)cc2o1`: the melting point fell in the range of 199 to 201 °C.

Take `O=C(O)C1CCc2c(n(C(=O)c3ccccc3)c3ccc(Cl)cc23)C1` (stereo unspecified): the melting point lay in the range of 196 to 197 °C.

`CC(=O)Nc1ccc(Cl)c(O)c1` came in with a melting point of 212 °C.

Take `Cc1ccc(F)cc1C(=O)N1Cc2cccnc2Nc2ccccc21`: the melting point was in the range of 138 to 140 °C.

On to `NC1=NN(c2nc3ccccc3s2)C(c2ccc(Cl)cc2)C1` (stereo unspecified), for which the melting point is 273 to 275 °C.

Take `CS(=O)(=O)c1ccc(C(=O)NCc2ccc3c(c2)C(=O)N(C2CCC(=O)NC2=O)C3=O)nc1` (stereo unspecified): the melting point fell in the range of 276 to 278 °C.

`COc1ccc(Cn2c(=O)n([C@H]3CC[C@H](O)CC3)c3ccc(C(F)(F)F)cc32)cc1OC` displayed a melting point of 108 to 110 °C.

`Cc1nnc(-c2ccnc(NC(=O)OC(C)(C)C)c2)o1` came in with a melting point of 290 to 291 °C.

For `CCOC(=O)C(=O)Nc1ccc2[nH]c(=O)oc2c1`, the melting point fell in the range of 180 to 186 °C.

For `CCCCCCCCOc1ccc(-c2ncc(O)cn2)cc1`, the melting point lay in the range of 131 to 132 °C.

`Cc1nn(-c2ccccn2)c2[nH]c3cccc(C(=O)O)c3c(=O)c12` showed a melting point of 303 to 306 °C.

`O=CC1=Cc2cc(OCc3ccccc3)ccc2OC1` displayed a melting point of 112 to 114 °C.

As to `CCCc1nc2ccccc2n1Cc1ccc(C2CCCC2C(=O)O)cc1` (stereo unspecified), the melting point lay in the range of 179 to 180 °C.

As to `CC(=O)N(C=CC(=Nc1ccccc1)Oc1ccccc1)c1ccccc1`, the melting point amounted to 120 °C.

With `Nc1cc(N2C(=O)CN(CCCF)C2=O)c(F)cc1Cl`, the melting point lay within 89 to 91 °C.

On to `CC(=O)N(CCCC(=O)O)C1CCCc2ccccc21` (stereo unspecified), for which the melting point was 141 to 142 °C.

In turn, `CC1(C)Oc2ccc(C#N)cc2C(CC(=O)N2CCCCC2)C1O` (stereo unspecified) had a melting point of 160 to 161 °C.

Compound `O=c1nc(-c2ccnc(Cl)c2)sc2ccccc12` registered a melting point of 178 °C.

Compound `O=C(/C=C/c1c[nH]c2ccc(OCc3ccccc3)cc12)c1ccncc1` returned a melting point of 218 to 221 °C.

In the case of `C#CCOc1cc(-n2c(=S)n3n(c2=S)COCC3)c(F)cc1Cl`, the melting point lay in the range of 167 to 169 °C.

The compound `CC(C)(C)OC(=O)N1CCc2c(n(CCO)c3ccc(Cl)c(Cl)c23)CC1` returned a melting point of 174 to 176 °C.

As to `O=C(CCCCl)Nc1ccc2c(c1NC(=O)CCCCl)C(=O)c1ccccc1C2=O`, the melting point was in the range of 154 to 155 °C.

`NS(=O)(=O)c1cccc(CCO)c1`: the melting point came to 109 °C.

On to `Cc1nc(-n2cc(-c3ccccc3)nn2)sc1C(=O)NCc1ccccc1`, for which the melting point was 175 to 178 °C.

Compound `Cc1ccc(C(=O)CC(O)C(=O)O)cc1` (stereo unspecified) registered a melting point of 92 to 100 °C.

Consider `Cc1ccccc1Sc1cccc(CC(=O)O)c1O`, for which the melting point was in the range of 96 to 97 °C.

Turning to `CN(C)C=Nc1sc([N+](=O)[O-])cc1C#N`, the melting point was 230 °C.

`COC(=O)CC(=O)C1CCC2C3CCC4CC(O)CCC4(C)C3C(=O)CC12C` (stereo unspecified) came in with a melting point of 150 to 152 °C.

Compound `CCCCC(CC)C(=O)Nc1ccc2c(c1)c(Cc1ccc(C(=O)NS(=O)(=O)c3ccccc3)cc1OC)cn2C` (stereo unspecified) came in with a melting point of 169 to 171 °C.

In the case of `COc1ccc(C=Cc2ccc(OC)c(OC)c2)cc1`, the melting point fell in the range of 131 to 134 °C.

`CC(C)(C)[N+]([O-])=Cc1ccccc1OCc1ccccc1` gave a melting point of 111 °C.

`CCc1ccccc1/C(N)=C1\Sc2ccccc2C1=O` had a melting point of 132 to 133 °C.

For `Nc1ncc(Cl)c(Cl)c1Cl`, the melting point lay within 160 to 162 °C.

`CCCCNC(=O)Nc1ccc(OCC2CC2)cc1C(=O)NCC1CCN(C(c2ccccc2)c2ccccc2)CC1` came in with a melting point of 190 to 192 °C.

In turn, `CC(O)(c1ccccc1)C1CCN1C(c1ccccc1)c1ccccc1` (stereo unspecified) had a melting point of 152 to 154 °C.

`CC1(C)OCC(NC2COC(C)(C)OC2)CO1`: the melting point is 65 °C.

`CCOC(=O)c1cc(C)n(-c2cccc(Cl)c2)c1-c1ccccc1` showed a melting point of 93.2 to 94.6 °C.

Turning to `O=CN1CCN(c2nc3ccc(Cl)ccc-3n2)CC1`, the melting point was 228 to 229 °C.

Take `CC(C)c1cccc(C(C)C)c1NC(=O)C(Cc1ccc(OCc2ccccc2)cc1)NCc1ccccc1` (stereo unspecified): the melting point fell in the range of 127 to 129 °C.

Take `O=C(Cc1ccccc1Br)NCC1OC(n2cc(Br)c(=O)[nH]c2=O)CC1O` (stereo unspecified): the melting point fell in the range of 222 to 223 °C.

With `CCOC(=O)C1=C(COCCNc2noc(N)n2)NC(C)=C(C(=O)OC)C1c1ccccc1Cl` (stereo unspecified), the melting point was 135 °C.

`Cn1ncc(C(=O)N2CCOCC2)c1C(=O)Nc1ccn2nc(-c3cccc(F)c3)nc2c1` registered a melting point of 212 to 214 °C.

In the case of `O=C(O)CCc1ccc(CCNS(=O)(=O)c2ccc(Cl)cc2)s1`, the melting point was 127 to 130 °C.

As to `Oc1c(-c2ccc(F)cc2)nn2ccccc12`, the melting point fell in the range of 178 to 179 °C.

`CCCCCCCCCCCCCOc1ccc(CNc2ccc(C(=O)OCC)cc2)cc1` showed a melting point of 95 to 105 °C.

With `Cc1ccc(S(=O)(=O)n2c(-c3cn(C)c4ccc(O)cc34)cc3cccnc32)cc1`, the melting point fell in the range of 256 to 257 °C.

Consider `CCOC(=O)C(=O)C(NC(=O)c1ccccc1)c1ccccc1` (stereo unspecified), for which the melting point lay in the range of 80 to 83 °C.

On to `Cc1csc2nc(C(=O)O)cn12`, for which the melting point lay within 196 to 197 °C.

`CC=C1C=C(OC)N=C(N)N1` came in with a melting point of 119 to 122 °C.

As for `COc1cc(C)cc(OC)c1N(C)C(C)=O`, the melting point lay within 160 to 161 °C.

`O=C1N(c2ccc(F)cc2)c2ccccc2C1(O)c1cc2c(cc1O)OCCO2` (stereo unspecified): the melting point lay within 195 to 200 °C.

In the case of `COc1cc2c(cc1Cl)C(O)Cc1ccc(F)cc1S2` (stereo unspecified), the melting point lay within 143 to 145 °C.

Compound `Cc1ccc2sc(-c3ccccc3)c(N(C)C)c2c1` registered a melting point of 89 to 92 °C.

`CCOC(=O)c1cc2cc(-c3ccc(C(C)=O)cc3)ccc2o1`: the melting point lay within 105 to 107 °C.

Regarding `Cn1c(=O)n(C)c2cc(C(=O)CSCCC(=O)O)c(Cl)cc21`, the melting point lay in the range of 148 to 150 °C.

With `CCc1nc2c(N)nc3ccccc3c2n1CCCC1(C)OCCO1`, the melting point lay within 195 to 196 °C.

Regarding `CCNC(=O)c1ccc2ccc(OC)cc2c1OC(C)C`, the melting point lay in the range of 78 to 79 °C.

In the case of `c1ccc(COc2cccc(OCc3ccccc3)n2)cc1`, the melting point was 74 °C.

In turn, `CC1N=C(c2ccccc2)c2cc(Br)ccc2NC1=O` (stereo unspecified) gave a melting point of 210 to 212 °C.

As for `O=c1[nH]c2ccccc2cc1-c1nnn[nH]1`, the melting point was in the range of 301 to 303 °C.

The compound `O=C1NC(=O)C2(c3cc(Oc4ccc([N+](=O)[O-])cc4)c(Cl)cc3F)CCCCC12` (stereo unspecified) displayed a melting point of 126 °C.

`S=c1c2[nH]cnc2c2cccnc2n1-c1ccccc1` came in with a melting point above 300 °C.

Turning to `CC1=C(C)[C@]23OC[C@](C)(CCC2=C(C)C1=O)O3`, the melting point was in the range of 99 to 100 °C.

The compound `COc1ccccc1N1CCN(CCn2c(=O)c3cscc3n(CCC(=O)O)c2=O)CC1` showed a melting point of 186 to 188 °C.

`COc1ccc(-c2cc(-c3ccccc3)[nH]c2C(=O)Nc2ccc(C(=O)NO)o2)cc1` showed a melting point of 160 to 162 °C.

Turning to `CCCCCCCNC(=O)Nc1ccc(N)cc1C(=O)NC1CCN(C(c2ccccc2)c2ccccc2)CC1`, the melting point was 190 to 192 °C.
